Data from paper PMC7288428, “Amaryllidaceae alkaloids with anti-Trypanosoma cruzi activity” (Parasites & Vectors, 2020).
≈ marks a conversion by molar mass, not a printed value. Where “and” joins values, the source holds several entries; their conditions need not be identical. Equal values may be shown once. Where a name gives a salt, the structure may show the parent alone. Read-outs that look alike come from different tables or passages of the source.

Assays:
[1] = test system: protozoa; design: method as in ref 28, 29 = [28]; PMID 15541744; doi:10.1016/j.phytochem.2004.10.004; 28. Machocho AK Bastida J Codina C Viladomat F Brun R Chabra SC Augustamine type alkaloids from Crinum kirkii Phytochemistry. 2004 65 3143 3149 15541744 10.1016/j.phytochem.2004.10.004 || [29]; 29. Osorio EJ Berkov S Brun R Codina C Viladomat F Cabezas F In vitro antiprotozoal activity of alkaloids from Phaedranassa dubia (Amaryllidaceae) Phytochem Lett. 2010 3 161 163; details: cited from earlier work
[2] = test system: trypomastigotes from the T. cruzi strain Tulahuen C4; design: method as in ref 28 = [28]; PMID 15541744; doi:10.1016/j.phytochem.2004.10.004; 28. Machocho AK Bastida J Codina C Viladomat F Brun R Chabra SC Augustamine type alkaloids from Crinum kirkii Phytochemistry. 2004 65 3143 3149 15541744 10.1016/j.phytochem.2004.10.004; details: cited from earlier work
[3] = test system: T. cruzi intracellular amastigote forms; test: Anti-amastigote specific activity assay (Vero host cells); assay type: cell-based; details: Trypanosoma cruzi, 96 h, read-out: anti-amastigote activity (IC50)
[4] = test system: Vero cells; test: Vero cell toxicity assay (Alamar Blue); details: 4 days, mean (SD in text)
[5] = test system: HepG2 cells; test: HepG2 cell toxicity assay (Alamar Blue); details: 2 days, mean (SD in text)
[6] = test system: T. cruzi; design: method as in earlier work; details: cited from earlier work
[7] = test system: HepG2 cells; design: method as in PMID 7701000; details: cited from earlier work
[8] = test system: avian influenza virus H5N1; details: read-out: IC50 against avian influenza virus H5N1; cited from earlier work
[9] = test system: T. cruzi; design: method as in PMID 9810280, PMID 11301878, PMID 22673940; details: L6 cells as host; cited from earlier work
[10] = test system: ZIKA virus; design: method as in PMID 28736217; details: cited from earlier work
[11] = test system: ZIKA virus; design: method as in PMID 28736217; details: human forebrain organoids; cited from earlier work
[12] = test system: ZIKA virus; design: method as in PMID 28736217; details: cited from earlier work; remark: listed apart in the source

For CC(=O)O[C@@H]1CC=C2CCN3Cc4cc5c(cc4[C@H]1[C@@H]23)OCO5 [1-O-acetylcaranine], which “antiprotozoal activity described before” value [1] is on record?
The value was “poor antiprotozoal agents”.

With CC(=O)O[C@H]1C=C[C@@]23CCN(C)Cc4ccc(O)c(c42)O[C@H]3C1 [3-O-acetylsanguinine] as the compound, how does the IC50 against trypomastigotes [2] read?
The IC50 against trypomastigotes was 2.3 µg/mL (≈ 7.29 µM).

And the IC50 ([2]; converted from μg/ml, read-out: IC50 against trypomastigotes)?
The IC50 was 7.29 µM.

Which results are given for O=C(Cn1ccnc1[N+](=O)[O-])NCc1ccccc1 [BNZ, benznidazole, reference compound]?
IC50 ([3]; intracellular amastigotes in Vero cells, mean (SD)): 1.2 µM; TC50, Vero cell toxicity assay [4]: 173.4 (43.57) µM and 173.4 µM; TC50, HepG2 cell toxicity assay [5]: 168.76 µM

Which “IC50 against T. cruzi” value [6] does the source give for COC1C=CC23c4cc5c(cc4CN(CC2O)C3C1)OCO5 (centres unmarked) [Haemanthamine, haemanthamine] here?
The value was 1.8 µg/mL (≈ 5.97 µM).

And the IC50 ([6]; converted from µg/ml, read-out: IC50 against T. cruzi)?
The IC50 was 5.97 µM.

What about the “TC50 for HepG2 cells” value [7] of the same compound?
The value was 13 µg/mL.

And the “TC50 for HepG2 cells” value ([7]; converted from µg/ml)?
The value was 43.14 µM.

What about the “TC50, Vero cell toxicity assay” value [4] of the same compound?
Its value is 11.52 µM.

And the “TC50, HepG2 cell toxicity assay” value [5]?
The value was 42.48 (6.96) µM and 42.48 µM.

With CN1CCC2=C[C@H](O)[C@H]3OC(=O)c4cc5c(cc4[C@H]3[C@@H]21)OCO5 [Hippeastrine, hippeastrine] as the compound, how does the IC50 ([3]; Vero) read?
The IC50 was 3.31 µM.

And the “TC50 for HepG2 cells” value [7]?
The value was 40 µg/mL.

What about the “TC50 for HepG2 cells” value ([7]; converted from µg/ml) of the same compound?
Its value is 126.85 µM.

What about the IC50 [8] of the same compound?
The IC50 was 47.5 µM.

What about the “TC50, Vero cell toxicity assay” value [4] of the same compound?
The value was 45.99 µM.

And the “TC50, Vero cell toxicity assay” value ([4]; listed as hippeastrine)?
The value was 45.99 (6.32) µM.

What about the “TC50, HepG2 cell toxicity assay” value [5] of the same compound?
Its value is 128.10 µM.

And the “TC50, HepG2 cell toxicity assay” value ([5]; listed as hippeastrine)?
The value was 128.1 (12.26) µM.

For O[C@H]1[C@H]2c3cc4c(cc3CN3CCC(=C[C@@H]1O)[C@H]23)OCO4 [Lycorine, lycorine], which “activity against T. cruzi in previous studies” value [9] is on record?
The value was “inactive”.

What about the “TC50, Vero cell toxicity assay” value [4] of the same compound?
The value was 5.21 µM.

And the “TC50, Vero cell toxicity assay” value ([4]; listed as lycorine)?
The value was 5.21 (0.80) µM.

And the “TC50, HepG2 cell toxicity assay” value [5]?
The value was 21.87 µM.

What about the “TC50, HepG2 cell toxicity assay” value ([5]; listed as lycorine) of the same compound?
Its value is 21.87 (4.16) µM.

For CO[C@H]1C=C2[C@H]3C[N@@](Cc4cc5c(cc43)OCO5)[C@H]2C[C@@H]1O [Montanine, montanine], which “TC50, Vero cell toxicity assay” value [4] is on record?
The value was 5.04 µM.

And the “TC50, HepG2 cell toxicity assay” value [5]?
The value was 46.10 µM.

What about the “TC50, HepG2 cell toxicity assay” value ([5]; listed as montanine) of the same compound?
The value was 46.1 (11.99) µM.

Which results are given for O=C1N[C@@H]2C(=C[C@H](O)[C@@H](O)[C@H]2O)c2cc3c(c(O)c21)OCO3 [Narciclasine, narciclasine]?
TC50, Vero cell toxicity assay [4]: 0.66 µM; TC50, Vero cell toxicity assay ([4]; listed as narciclasine): 0.66 (0.082) µM; TC50, HepG2 cell toxicity assay [5]: 2.73 µM; TC50, HepG2 cell toxicity assay ([5]; listed as narciclasine): 2.73 (0.67) µM

With CN1CC[C@@]23C=C[C@H](O)C[C@@H]2Oc2c(O)ccc(c23)C1 [Sanguinine, sanguinine] as the compound, how does the “antiprotozoal activity described before” value [1] read?
The value was “poor antiprotozoal agents”.

For CO[C@@H]1C=C[C@@]23c4cc5c(cc4CO[C@]2(O)CN(C)[C@H]3C1)OCO5 [Tazettine, tazettine], which “antiprotozoal activity described before” value [1] is on record?
Its value is “poor antiprotozoal agents”.

With C[C@H]1O[C@@H](O[C@H]2[C@@H](O)C[C@H](O[C@H]3[C@@H](O)C[C@H](O[C@H]4CC[C@@]5(C)[C@H](CC[C@@H]6[C@@H]5CC[C@]5(C)[C@@H](C7=CC(=O)OC7)CC[C@]65O)C4)O[C@@H]3C)O[C@@H]2C)C[C@H](O)[C@@H]1O [digitoxin, reference compound] as the compound, how does the “TC50, HepG2 cell toxicity assay” value [5] read?
The value was 0.29 (0.14) µM.

With CN1CCC2=C[C@H](O)[C@H]3OC(=O)c4cc5c(cc4[C@H]3[C@@H]21)OCO5 [hippeastrine hydrobromide] as the compound, how does the “effect on ZIKA virus in infected human neural progenitors” value [10] read?
The value was “remove ZIKA virus from infected human neural progenitors”.

What about the “effect on ZIKV-induced microcephaly phenotype” value [11] of the same compound?
Its value is “recover a ZIKV-induced microcephaly phenotype in human forebrain organoids”.

What about the “effect on virus propagation in infected adult mice” value [12] of the same compound?
Its value is “suppress virus propagation in infected adult mice”.
